Converted amounts (≈) assume the structure as drawn.
Tests used:
in vitro = in vitro ADME; details: plasma
Experimental: Protein binding is measured using the equilibrium dialysis technique. Compound is added to 10% plasma giving a concentration of 20 μM and dialysed with isotonic buffer for 18 hours at 37° C. The plasma and buffer solutions are analysed using generic LCUVMS and the first apparent binding constant for the compound derived. The binding constant is then used to determine the % free in 100% plasma.

[1] = 1 μM
Experimental: Viability of cryopreserved hepatocytes was determined using trypan blue and the cell conc. was adjusted to 10^6 cells per mL with buffer (KHB buffer). 1 μM compound (in Acetonitrile; 0.01% DMSO) was incubated with 500 μL of hepatocyte cells (1 million cells per mL) in a NUNC plate. […] Supernatants were analyzed using LC-MS/MS for substrate depletion.

[2] = system: Mycobacterium tuberculosis (Mtb) H37Rv; assay: Mtb minimal bactericidal concentration (MBC), plating from MIC plates; assay type: cell-based; details: Table 4, read-out: Mtb MBC
Experimental: Aliquots from sample wells (MIC and higher) from the MIC plates were diluted 1:10 and plated on 7H10 agar plates. Plates were incubated at 37° C. for 3-4 weeks, CFU was enumerated.

[3] = infected BALB/c mice, chronic efficacy, multiple oral doses 30 mg/kg, +ABT
hERG = hERG (Homo sapiens, UniProt Q12809)
hERG, sequence (Q12809 whole entry): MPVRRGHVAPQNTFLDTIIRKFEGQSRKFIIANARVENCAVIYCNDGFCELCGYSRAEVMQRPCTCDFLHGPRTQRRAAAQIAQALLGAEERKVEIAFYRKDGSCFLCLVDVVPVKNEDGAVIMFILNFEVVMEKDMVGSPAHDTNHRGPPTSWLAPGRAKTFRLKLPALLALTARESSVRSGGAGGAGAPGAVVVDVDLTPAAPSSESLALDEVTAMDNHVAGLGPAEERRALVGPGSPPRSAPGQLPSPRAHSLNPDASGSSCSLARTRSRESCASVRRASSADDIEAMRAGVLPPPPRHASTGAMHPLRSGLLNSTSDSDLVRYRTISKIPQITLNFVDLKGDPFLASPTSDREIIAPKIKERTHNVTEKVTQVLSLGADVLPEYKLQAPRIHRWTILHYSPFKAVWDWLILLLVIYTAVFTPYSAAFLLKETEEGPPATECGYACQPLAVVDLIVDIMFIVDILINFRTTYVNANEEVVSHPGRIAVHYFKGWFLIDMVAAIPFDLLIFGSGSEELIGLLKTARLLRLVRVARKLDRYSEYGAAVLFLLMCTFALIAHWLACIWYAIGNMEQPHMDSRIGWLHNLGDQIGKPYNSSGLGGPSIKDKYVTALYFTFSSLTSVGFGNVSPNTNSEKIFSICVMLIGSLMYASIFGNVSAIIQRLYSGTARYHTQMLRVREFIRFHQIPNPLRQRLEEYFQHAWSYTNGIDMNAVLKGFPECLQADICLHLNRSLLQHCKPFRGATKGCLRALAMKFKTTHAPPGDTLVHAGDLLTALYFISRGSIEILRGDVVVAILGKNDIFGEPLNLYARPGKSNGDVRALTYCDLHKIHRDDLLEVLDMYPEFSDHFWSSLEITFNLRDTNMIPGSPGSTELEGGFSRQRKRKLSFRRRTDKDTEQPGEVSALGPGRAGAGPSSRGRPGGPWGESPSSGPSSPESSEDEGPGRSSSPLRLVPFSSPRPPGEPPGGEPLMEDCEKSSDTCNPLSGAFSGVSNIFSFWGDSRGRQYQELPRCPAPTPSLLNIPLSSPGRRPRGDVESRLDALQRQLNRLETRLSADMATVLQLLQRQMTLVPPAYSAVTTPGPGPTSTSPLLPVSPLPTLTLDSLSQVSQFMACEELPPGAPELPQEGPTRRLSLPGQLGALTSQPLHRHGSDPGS
Experimental: Compounds were tested on voltage-gated ion channels using the medium-throughput electrophysiology IonWorks™ device. […] For carrying out the experiment, a boat in the “Cells” position of the IonWorks™ instrument was loaded with the cell suspension, and a 96-well PBS destination plate was placed in the “Plate 1” position. A 384-well PatchPlate™ was placed in the IonWorks™ plenum and held in position using the plenum clamp. From this point the experiment progress is automated and ultimately reports a non-cumulative concentration-effect curve for test compound.

in vivo [4] = details: BALB/c, mouse, po, 50 mg/kg
[5] = assay type: in vitro ADME; details: pH 7.4
Experimental: 1 μM compound was incubated with 1 mg/mL of microsomes (Pooled HLM/MLM with 20 mg/ml protein cone.) at 37° C. in 166 μL of buffer (100 mM phosphate buffer, pH-7.4) containing 2 mM NADPH solution. […] The quench plate was centrifuged at 4000 rpm for 15 min. 30 μL of supernatant was diluted to 300 μL with 50% acetonitrile in water and substrate depletion was analyzed using LC-MS/MS.

physchem = assay type: physicochemical; details: 25 °C, pH 7.4, aqueous buffer, thermodynamic from solid
Experimental: Solubility of the compounds in 0.1M phosphate buffer, pH 7.4 was determined as described, Glyburide was used as QC standard in the assay. Briefly, compounds were diluted in ACN/water (40:60) to desired concentration, samples were dried using Genevac for 4 hrs and subsequently 800 μl of buffer was added. Compound containing plates were stirred for 24 hrs at 25° C. on Eppendorf Thermomix R at 750 rpm. Finally, compound concentration was estimated using UV and MS analysis.

in vivo [6] = details: BALB/c, mouse, 100 mg/kg; for AUC(0-inf) / Cmax: po; for AUC(0-inf): AUC0-∞
Experimental: ELF PK was performed in healthy mice (three mice/group) as described previously (Solapure et. al, 2013) after administration of a single oral dose of 100 mg/kg compound formulated in 0.5% HPMC, and 0.1% Tween 80 suspensions. […] Broncho-Alveolar Lavage (BAL) was performed after tracheotomy using 0.7 mL of ice-cold PBS. Urea estimation kit, DIUR-500 (Bio-assay Systems, U.S.A) was used for urea estimation in plasma and BAL samples. Volume of ELF was calculated after normalizing the urea concentration in BAL with that of plasma as described in Marry et. al, 2011. Plasma and BAL samples were stored at −20° C. until analysis using LC-MS/MS.
One mg/mL stock solution of each compound was prepared in Dimethylsulfoxide (DMSO) and diluted two-fold with acetonitrile. A sixteen point calibration curve was utilized for each analyte, and the standard curves ranged from 0.001 to 40 μg/mL. Plasma/BAL samples were precipitated by adding chilled acetonitrile (1:10 v/v) containing carbamazepine as internal standard (250 ng/mL). Samples were vortexed, and centrifuged at 4000 rpm for 30 min at 10° C. The resulting supernatant was mixed with mobile phase (50% acetonitrile in water with 0.1% formic acid). […] of sample was injected on to a liquid chromatographic system (Waters-ACQUTY UPLC) coupled to triple quadrupole mass spectrometer (Waters-ACQUTY-TQD; MS/MS). Samples were acquired in positive ion mode and detected by multiple reaction monitoring (MRM). Concentrations of the analyte were determined from a standard curve obtained by plotting known concentrations of the analyte against peak area ratios (analyte/internal standard peak response).
Volume of ELF in the BAL samples was calculated as volume of BAL multiplied by the ratio of urea concentrations in BAL and plasma as described (Solapure et. al, 2013; Marry et. al, 2011) The compound concentration in ELF was calculated by multiplying concentration in BAL samples by the ratio of BAL volume to the ELF volume. AUC0-∞ in plasma and ELF were calculated by Non-compartmental analysis WinNonlin Phoenix Software (version 6.2; Pharsight, USA). Free plasma AUC was calculated after multiplying concentrations at each time point by the free fraction in plasma. Lung ELF penetration ratio was calculated as a ratio of AUC0-∞ in ELF to free AUC0-∞ in free plasma/total plasma during the same time interval. This ratio, measured in healthy mice after single dose administration, was assumed to remain constant during multiple dose efficacy study in the infected mice. Sparse sample analysis in WinNonlin was used for estimating standard error (SE) associated with AUC estimate.

[7] = system: hypoxia induced non-replicating persistent (NRP) Mtb cells; assay: Activity against hypoxia induced non-replicating persistent (NRP) Mtb (HBC, Wayne model); assay type: cell-based, Mycobacterium tuberculosis
[8] = pH 7.4
Experimental: Octanol-water partition coefficient (Log D) based on the shake-flask principle has been measured as follows. The aqueous solution used was 10 mM sodium phosphate buffer pH 7.4. 20 μL of 10 mM compound dissolved in DMSO was taken in glass vial plate. DMSO was removed using GeneVac. 435 μL of octanol was added using Tomtec, stirred for 5 min to dissolve. Further mixing was done by inversion for 5 h at 25° C., subsequently centrifuged for 30 min at 3000 RPM. LC/UV/APPI/MS quantitation of both aqueous and octanol layers was carried out. Log D value was determined according to the following equation.

Q: Which fraction unbound at 18 h, 20 μM (in vitro; human) does the source give for `COc1ncnc(Cn2cc(C(=O)NCCF)c3ncccc32)c1C` [Compound 3, N-(2-fluoroethyl)-1-((6-methoxy-5-methylpyrimidin-4-yl)methyl)-1H-pyrrolo[3,2-b]pyridine-3-carboxamide] here?
A: 0.05 to 0.22

Q: What about the “Human PPB (% free)” value (in vitro) of the same molecule?
A: 9.8 % free

Q: What about the “Human CLpred hepatocytes (% LBF)” value [1] of the same molecule?
A: 6.0 % LBF

Q: And the “Rat CLpred hepatocytes (% LBF)” value [1]?
A: 13 % LBF

Q: And the MBC [2]?
A: 1.56 to 3.12 µM (≈ 0.536 to 1.07 µg/mL)

Q: And the “% T > MIC” value [3]?
A: 92%

Q: What about the “% fT > MIC” value [3] of the same molecule?
A: 29%

Q: And the hERG (hERG)?
A: >33 µM

Q: And the AUC(0-inf) (in vivo [4])?
A: 106 ± 3.04 µM·h

Q: And the Cmax (in vivo [4])?
A: 17.8 ± 5.61 µM

Q: And the Tmax (in vivo [4])?
A: 4.33 ± 1.15 h

Q: What about the half-life (in vivo [4]) of the same molecule?
A: 2.38 ± 0.19 h

Q: And the “Human CLpred microsomes (% LBF)” value [5]?
A: 10.4 % LBF

Q: What about the solubility at 24 h (physchem) of the same molecule?
A: 8 µM (≈ 2.75 µg/mL)

Q: And the Kp (in vivo [6]; ELF penetration ratio (based on free plasma AUC))?
A: 7.29 to 26.1

Q: What about the Kp (in vivo [6]; ELF penetration ratio (based on total plasma AUC)) of the same molecule?
A: 0.6 to 1.97

Q: What about the AUC(0-inf) (in vivo [6]; ELF) of the same molecule?
A: 713 ± 176 µM·h

Q: And the AUC(0-inf) (in vivo [6]; Plasma)?
A: 573 ± 78.8 µM·h

Q: And the AUC(0-inf) (in vivo [6]; fPlasma)?
A: 43.5 ± 5.96 µM·h

Q: What about the Cmax (in vivo [6]; ELF) of the same molecule?
A: 74 ± 3.77 µM

Q: What about the Cmax (in vivo [6]; Plasma) of the same molecule?
A: 63.8 ± 7.37 µM

Q: What about the Cmax (in vivo [6]; fPlasma) of the same molecule?
A: 4.85 ± 0.56 µM

Q: What about the “activity against non-replicating Mtb under hypoxic conditions” value ([7]; cidality measured as HBC in Wayne model) of the same molecule?
A: moderate activity

Q: What about the “Mtb HBC” value ([7]; hypoxic conditions, Wayne model, Table 4) of the same molecule?
A: 50 µM

Q: And the logD [8]?
A: 2.1

— patent US9163020B2, “Azaindole compounds, synthesis thereof, and methods of using the same” (Global Alliance for TB Drug Development, priority 2013, dated 2015)
